This is an account of results in US11254671B2, “Chemical compounds” (GLAXOSMITHKLINE INTELLECTUAL PROPERTY DEVELOPMENT LIMITED, priority 2017, dated 2022).

One assay concerns the target T1, mTOR (Homo sapiens, UniProt P42345).
T1 construct: capturing of endogenously expressed target proteins from cell extracts by a bead-immobilized capturing ligand; endogenous in cells; host or cells: HuT-78 cells (ECACC 88041901), cell lysate
The assay is described as follows: mTOR kinobeads assay (competition-binding assay). Conditions: HuT-78 cell extract, endogenously expressed mTOR, bead-immobilized capturing ligand; mean of multiple experiments; read-out: mean pIC50, affinity for mTOR (converted). As to the method: The affinity of test compounds for mTOR was determined in the mTOR kinobeads assay. This is a competition-binding assay based on the capturing of endogenously expressed target proteins from cell extracts by a bead-immobilized capturing ligand in presence of the test compound.
HuT-78 cells (European Collection of Authenticated Cell Cultures, 88041901) were cultured according to vendor's instructions. Frozen cell pellets were homogenized in 3× pellet volumes lysis buffer (50 mM Tris-HCl, 0.4% (v/v) Igepal-CA630, 5% glycerol, 150 mM NaCl, 1.5 mMMgCl2, 25 mM NaF, 1 mM sodium vanadate, 1 mM DTT, pH 7.5, supplemented with EDTA-free protease inhibitor tablet (Roche)). The sample was dispersed using a Dounce homogenizer, kept rotating for 30 min at 4° C., and centrifuged for 10 min at 20 000 g at 4° C. The supernatant was centrifuged again for 1 h at 145 000 g. The protein concentration was determined by Bradford assay (BioRad), aliquots were snap frozen in liquid nitrogen and stored at −80° C.
The capturing matrices were generated by derivatizing N-hydroxysuccinimide (NHS) activated Sepharose 4 beads (GE Healthcare) with the functionalized ligands Compound A and Compound C at a ligand density of 5 mM. Remaining NHS-groups were blocked with ethanolamine.
For the mTOR kinobeads assay the matrices were combined in a 1:1 ratio and equilibrated in DP buffer (50 mM Tris-HCl (pH 7.5), 0.4% (v/v) Igepal-CA630, 5% (v/v) glycerol, 150 mM NaCl, 1.5 mM MgCl2, 25 mM NaF, 1 mM Na3VO4, 1 mM dithiothreitol). All steps of the mTOR kinobeads assay were performed at 4° C. or on ice. The cell lysate was diluted with DP buffer to a final concentration of 5 mg/ml and a final detergent concentration of 0.4% (v/v) Igepal-CA630. For the assay 250 μg cell lysate and 2.5 μl capturing matrix per well (final assay volume: 75 μl) were incubated in the presence of test compounds in a 384-well filter plate (MultiScreenHTS HV Filter Plate, 0.45 μm, MZHVNOW50, Merck Millipore). Each plate contained 16 positive (100 μM Compound B) and 16 negative (2% v/v DMSO) control wells. Compounds were tested in a concentration-response applying 1:3 or 1:4 dilution steps for in total 11 data points. DMSO concentration was 2% (v/v). After 2 h incubation on an overhead shaker (Roto-Shake Genie, Scientific Industries Inc.) at 4° C. the non-bound fraction was removed by washing the beads with DP buffer. Proteins retained on the beads were eluted in SDS sample buffer (200 mM Tris (pH 7.4), 250 mM Trizma Base, 4% (w/v) SDS, 20% (v/v) glycerol, 0.01% (w/v) bromophenol blue, 50 mM dithiothreitol) into a collection plate (384 well polypropylene microplate, V-shape, Greiner, 781 280). Eluates were spotted on nitrocellulose membranes (400 nl per spot) using an automated pin-tool liquid transfer (Biomek FX, Beckman). After drying, the membranes were rehydrated in 20% (v/v) ethanol and blocked by incubation with Odyssey blocking buffer (LICOR, 927-40000) for 1 h at room temperature. Blocked membranes were incubated overnight at 25° C. with Odyssey blocking buffer supplemented with a specific anti-mTOR antibody (Cell Signaling, 2972; 1:500) and 0.4% TWEEN-20. Then the membranes were washed in PBST buffer and incubated for 60 minutes at room temperature with the detection antibody (IRDye™ labelled antibody from LI-COR) diluted in Odyssey blocking buffer (LICOR 927-40000) containing 0.2% TWEEN-20. Then the membranes were washed with PBST and finally rinsed twice with PBS buffer to remove residual Tween-20. The membranes were then scanned with the Odyssey® Infrared Imaging System (LI-COR Biosciences). Fluorescence signals were recorded and analyzed according to the instructions of the manufacturer. Concentration response curves were computed with the software Activity Base. All data were normalized to the mean of 16 high (negative control) and 16 low (positive control) control wells on each plate. […]

In assay [1] the test system is phosphorylated Akt at serine 473 (pAKTs473) in primary human lung fibroblasts. As to the kind of experiment: Highthroughput phosphorylated Akt (Ser473) in vitro immunoassay (MSD). The assay is classed as cell-based. The note with it: Fibroblast, 1 h compound, PDGF-BB 10 ng/ml for 10 min, mean of multiple experiments, read-out: mean pIC50, inhibition of pAkt (Ser473) (converted). An excerpt:
Highthroughput Phosphorylated Akt (Ser473) In Vitro Immunoassay
Immunoassay to measure effect of test compounds on phosphorylated Akt at serine 473 (pAKTs473) in primary human lung fibroblasts (Lonza Group Ltd, Basel, Switzerland, Catalogue No. CC-2512) using the MesoScale Discovery (MSD) platform to quantify levels of total Akt and pAKTser473.
Human lung fibroblasts were routinely maintained in fibroblast basal medium supplemented with 2% foetal bovine serum (FBS), 0.1% human fibroblast growth factor (FGF)-B, 0.1% insulin, 0.1% GA-100 (Lonza Group Ltd, Basel, Switzerland, Catalogue No. CC-3132) at 37° C. in 5% CO2 according to the manufacturer's protocol.
For the assay, cells were harvested using Trypsin/EDTA, (Lonza Group Ltd, Basel, Switzerland, Catalogue No. CC-5012), at working concentration of 0.025%, resuspended to give 3×10^5 cells/ml and 50 ul/well seeded into 384-well plates (Greiner Group, Kremsmunster, Austria, Catalogue No. 781091) in media containing 0.4% FBS and incubated o/n at 37° C. in 5% CO2.
Test compounds were dissolved in 100% DMSO to give 10 mM stock solutions and serially diluted to generate an 11-point concentration response curve. Compound were further diluted by […] into 384-well V-bottom polypropylene plates (Greiner Group, Kremsmunster, Austria, Catalogue No. 781280) with media containing 0.4% FBS to give 50 μM top compound concentration in 0.5% DMSO.
Compounds were transferred to 384-well plates contacting cells (0.1% DMSO final) and incubated for 1 h at 37° C. in 5% CO2, prior to stimulation with platelet-derived growth factor (PDGF)-BB (R&D Systems, Catalogue No. 220-BB) at 10 ng/ml (final) for 10 min at RT. Cell assay plates were incubated on ice and treated with lysis buffer (Cell Signalling Technology, Catalogue No. 9806) containing protease and phosphatase inhibitors (Thermo Scientific, Catalogue No. 78444) followed by shaking for 30 min at 4° C.
MSD plates (MSD, MA6000 384-well GAR plate, Catalogue No. L21RA-2) were blocked with blocking buffer containing TBS (MSD, Cat. No. R61TX-1) with 0.5% bovine serum albumin (BSA) (Sigma Aldrich, Cat. No. A7906), 0.1% tween-20 (Sigma Aldrich, Catalogue No. P2287) and coated with rabbit-anti-human pAkt (s473) ab (Cell Signalling Technology, Catalogue No. CST #4060) at RT with shaking, followed by washing (×3) with 1×TBS wash reagent containing 0.1% Tween-20. Cell lysates (30 ul) were added and MSD plates centrifuged at 1000 rpm at 4° C. o/n.
Plates were washed with 1×TBS wash buffer (×3), prior to addition of mouse-anti-human-total Akt ab (1 mg/ml) (Upstate (Milipore), Catalogue No. 05-591) in blocking buffer and shaken at RT for 1 h. After washing with 1×TBS wash buffer (×3), plates were incubated with goat-anti-mouse SULFO-TAG detection ab (MSD, Catalogue No. R32AC-1) (1:500 in blocking buffer) for 1 h at RT. Plates were washed with 1×TBS (×3) and read buffer (2×) (MSD, Catalogue No. R92TC-1) added before detecting electrochemiluminescence (MSD Sector Imager 6000).
Data analysis was performed by determining % inhibition values for test compounds relative to the minimum (+PDGF-BB stimulation) and maximum responses (no PDGF-BB stimulation) with non-linear regression analysis to determine IC50 values for test compounds.

Values joined by “and” are separate entries in the source; they are usually repeats but may differ in a detail not shown here. Identical values can stand only once.

Regarding `CC[C@H]1COCCN1c1cc(C(C)(C)S(C)(=O)=O)cc(-c2ccc3[nH]c(CNC)cc3n2)n1` [Example 1, [(5-{6-[(3S)-3-ethylmorpholin-4-yl]-4-(2-methanesulfonylpropan-2-yl)pyridin-2-yl}-1H-pyrrolo[3,2-b]pyridin-2-yl)methyl](methyl)amine], the IC50 at mTOR is 2.51 to 31.6 nM and 15.8 nM and 2.51 to 316 nM.
As to `CC[C@H]1COCCN1c1cc(CS(C)(=O)=O)cc(-c2ccc3[nH]c(CN(C)CC)cc3n2)n1` [Example 14, (S)—N-((5-(6-(3-ethylmorpholino)-4-((methylsulfonyl)-methyl)pyridin-2-yl)-1H-pyrrolo[3,2-b]pyridin-2-yl)-methyl)-N-methylethanamine], the IC50 is 2.51 to 316 nM at mTOR and 3.16 to 316 nM in assay [1].
As for `CNCc1cc2nc(-c3cc(CS(C)(=O)=O)cc(N4CCOCC4)n3)ccc2[nH]1` [Example 46, ({5-[4-(methanesulfonylmethyl)-6-(morpholin-4-yl)pyridin-2-yl]-1H-pyrrolo[3,2-b]pyridin-2-yl}methyl)(methyl)amine], at mTOR, the IC50 is 2.51 to 316 nM.
`CC[C@H]1COCCN1c1cc(C2(S(C)(=O)=O)CCNCC2)cc(-c2ccc3[nH]c(CO)cc3n2)n1` [Example 36]: the IC50 was 2.51 to 31.6 nM and 2.51 to 316 nM at mTOR; 3.16 to 316 nM in assay [1].
In the case of `CC[C@H]1COCCN1c1cc(C2(S(C)(=O)=O)CCOCC2)cc(-c2ccc3[nH]c(CNC)cc3n2)n1` [Example 15, (S)-1-(5-(6-(3-ethylmorpholino)-4-(4-(methylsulfonyl)tetrahydro-2H-pyran-4-yl)pyridin-2-yl)-1H-pyrrolo[3,2-b]pyridin-2-yl)-N-methylmethanamine], the IC50 on mTOR was 2.51 to 31.6 nM and 7.94 nM and 2.51 to 316 nM; in assay [1], 2.51 to 10 nM.
As for `CC[C@H]1COCCN1c1cc(C2(S(C)(=O)=O)CCOCC2)cc(-c2ccc3[nH]c(CN(C)CC)cc3n2)n1` [Example 16, (S)—N-((5-(6-(3-ethylmorpholino)-4-(4-(methylsulfonyl)tetrahydro-2H-pyran-4-yl)pyridin-2-yl)-1H-pyrrolo[3,2-b]pyridin-2-yl)methyl)-N-methylethanamine], the IC50 was 2.51 to 316 nM on mTOR and 3.16 to 316 nM in assay [1].
As to `CNCc1cc2nc(-c3cc(CS(C)(=O)=O)cc(N4C5CCC4COC5)n3)ccc2[nH]1` [Example 47, ({5-[4-(methanesulfonylmethyl)-6-{3-oxa-8-azabicyclo[3.2.1]octan-8-yl}pyridin-2-yl]-1H-pyrrolo[3,2-b]pyridin-2-yl}methyl)(methyl)amine], the IC50 was 2.51 to 316 nM on mTOR and 3.16 to 316 nM in assay [1].
Taken in the same sequence, the figures for `CNCc1cc2nc(-c3cc(CS(C)(=O)=O)cc(N4CCOC[C@H]4C)n3)ccc2[nH]1` [Example 26, ({5-[4-(methanesulfonylmethyl)-6-[(3R)-3-methylmorpholin-4-yl]pyridin-2-yl]-1H-pyrrolo[3,2-b]pyridin-2-yl}methyl)(methyl)amine] were 2.51 to 316 nM and 3.16 to 316 nM.
Consider `CNCc1cc2nc(-c3cc(CS(C)(=O)=O)cc(N4CCCOCC4)n3)ccc2[nH]1` [Example 45, ({5-[4-(methanesulfonylmethyl)-6-(1,4-oxazepan-4-yl)pyridin-2-yl]-1H-pyrrolo[3,2-b]pyridin-2-yl}methyl)(methyl)amine], for which, on mTOR, the IC50 is 2.51 to 316 nM.
As for `CC[C@H]1COCCN1c1cc(C2(S(C)(=O)=O)CCNCC2)cc(-c2ccc3[nH]c(CNC)cc3n2)n1` [Example 24, [(5-{6-[(3S)-3-ethylmorpholin-4-yl]-4-(4-methanesulfonylpiperidin-4-yl)pyridin-2-yl}-1H-pyrrolo[3,2-b]pyridin-2-yl)methyl](methyl)amine], the IC50 was 2.51 to 31.6 nM and 2.51 to 316 nM on mTOR; 3.16 to 316 nM in assay [1].
`CC[C@H]1COCCN1c1cc(C2(S(N)(=O)=O)CCOCC2)cc(-c2ccc3[nH]c(CNC)cc3n2)n1` [Example 27, 4-{2-[(3S)-3-ethylmorpholin-4-yl]-6-{2-[(methylamino)methyl]-1H-pyrrolo[3,2-b]pyridin-5-yl}pyridin-4-yl}oxane-4-sulfonamide]: the IC50 in assay [1] is 3.16 to 316 nM.
`CC[C@H]1COCCN1c1cc(C2(S(C)(=O)=O)CCN(C(C)=O)CC2)cc(-c2ccc3[nH]c(CNC)cc3n2)n1` [Example 39, 1-(4-{2-[(3S)-3-ethylmorpholin-4-yl]-6-{2-[(methylamino)methyl]-1H-pyrrolo[3,2-b]pyridin-5-yl}pyridin-4-yl}-4-methanesulfonylpiperidin-1-yl)ethan-1-one]: the IC50 on mTOR is 2.51 to 316 nM.
